Experimental data as given in patent US20250011316A1, “PEROXIREDOXIN 3 INHIBITORS AND METHODS OF USE FOR TREATING CANCER” (Wake Forest University Health Sciences, priority 2022, published 2025).
In brackets after ≈: the same amount, converted by molar mass.

Tests used:
[1] = tested on: human SK—OV-3 ovarian cancer cells; assay: Cellular Activity Assay (cytotoxicity, crystal violet); format: cell-based; conditions: Homo sapiens, SK—OV-3 cells, treated for 48 hr, 0.1-100 μM, crystal violet absorbance at 540 nm
Source text: (§1) To test the activity of compounds, two complimentary assays were used as described below. The Biochemical PRX3 Inhibition Assay tests the ability of each compound to crosslink PRX3 in a simple, in vitro system. In the Cellular Activity Assay, we are testing the ability of compounds to kill SK—OV-3 ovarian cancer cells.
The Cellular Activity Assay measures the EC50 of each compound in human SK—OV-3 ovarian cancer cells TS to be taken into the cell, transported to the mitochondria, and crosslink PRX3.
The cytotoxicity of compounds was measured as described in Nelson et al. (2021) Antioxidants (Basel) 10, 150; Cunniff et al. (2015) PloS one 10, e0127310; and Newick et al. (2012) PloS one 7, e39404. SK—OV-3 is an adherent, epithelial, adenocarcinoma cell line obtained from ATCC (ref #: HTB-77). SK—OV-3 cells are resistant to the commonly used chemotherapeutics, cis-platinum and doxorubicin. For this […], SK—OV-3 cells were plated in a 96-well plate. After 24 h recovery, the cells were treated for 48 hr with multiple concentrations of each compound ranging from 0.1-100 μM.
Cells were washed with PBS to remove dead cells and the remaining live cells were fixed with 3.0% formaldehyde and stained with 0.1% crystal violet. The amount of crystal violet was determined by reading the absorbance at 540 nm (crystal violet dye dissolved in 100% methanol) using a plate reader. The signal for crystal violet dye is proportional to the biomass of remaining live cells. GraphPad Prism9 software was used to calculate the effective inhibitory concentration (EC50) of test compounds. Results for each compound, are normalized to the amount of cells in control wells treated with the equivalent concentration of DMSO (negative control). TS or Compound 4 were included in each set of assays as a positive control.

[2] = biological target: T1, purified human PRX3 (Homo sapiens, UniProt P30048); assay: Biochemical PRX3 Inhibition Assay (non-reducible crosslink by SDS PAGE + single adduct by MALDI-TOF MS); conditions: 100 μM PRX3 with TRX2/thioredoxin reductase/NADPH system and hydrogen peroxide, 1-2 hr at 37° C.
T1 construct: made in house
T1 sequence (P30048 62-256): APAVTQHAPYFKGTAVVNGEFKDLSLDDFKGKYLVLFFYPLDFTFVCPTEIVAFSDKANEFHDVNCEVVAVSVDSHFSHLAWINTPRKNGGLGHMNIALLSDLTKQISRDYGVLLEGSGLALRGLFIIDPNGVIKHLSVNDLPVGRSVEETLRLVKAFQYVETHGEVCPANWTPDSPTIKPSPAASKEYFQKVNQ
Source text: The compounds described herein generally react with two essential cysteine residues in the mitochondrial peroxidase PRX3, leading to the formation of a non-reducible, covalent crosslink of two PRX3 monomers. This crosslink inactivates PRX3. Increased PRX3 crosslink is associated with mitochondrial stress, increased cell death in cell models of malignant mesothelioma and is associated with decreased tumor volume in a mouse model. Cunniff et al. (2015) PloS one 10, e0127310.
as §1
This assay tests the ability of each compound to form a covalent adduct with PRX3. The assay is performed as described in Nelson et al. (2021) Antioxidants (Basel) 10, 150; and Cunniff et al. (2015) PloS one 10, e0127310, and follows the appearance of non-reducible PRX3 crosslinks by SDS PAGE gel electrophoresis and follows the appearance of single PRX3 adducts by mass spectrometry. For this assay, purified human PRX3, hydrogen peroxide (the PRX3 substrate) and all the components required to enable PRX3 to catalytically cycle (thioredoxin-thioredoxin reductase-NAPDH system) are included (details below).
The biochemical PRX3 Inhibition assay contains 100 μM PRX3, 50 μM human TRX2, 0.5 μM mouse thioredoxin reductase, and a NADPH regenerating system composed of 3.2 mM glucose 6-phosphate, 3.2 U/ml glucose 6-phosphate dehydrogenase and 0.4 mM NADPH. Samples are incubated for 1-2 hr at 37° C. with either 0.2 mM TS (positive control), compounds or an equivalent volume of DMSO (negative control). During this incubation, hydrogen peroxide is added to induce turnover of PRX3. Reactions are stopped by the addition of a buffer containing 100 mM dithiothreitol (to break disulfide bonds) and SDS (detergent to denature proteins). NADPH, Glucose 6-Phosphate, and glucose 6-phosphate dehydrogenase were purchased from Sigma Aldrich. PRX3, thioredoxin, and thioredoxin reductase were all purified to >98% purity in the Lowther laboratory according to protocols referenced in Nelson et al. (2021) Antioxidants (Basel) 10, 150; and Cunniff et al. (2015) PloS one 10, e0127310.
To measure the amount of PRX3 crosslink, proteins in the reaction were separated by SDS-polyacrylamide gel electrophoresis and stained for total protein using GelCode Blue (Life Technologies). The amount of unmodified PRX3 and TS-PRX3 crosslink was measured by densiometric analysis of the signal for the PRX3 band running at the MW of a PRX3 crosslink (˜46 kDa) compared to the PRX3 signal at the MW of the un-modified PRX3 (−23 kD).
To measure covalent adduct formation on a single PRX3 monomer, each reaction was exchanged into a mass spectrometry compatible buffer containing 40 mM ammonium citrate, pH 8.3 made in HPLC water. Sample was mixed 1:1 with a matrix solution containing 30 mg/mL sinapinic acid in 70% (vol/vol) acetonitrile, 0.2% formic acid and spotted to onto the sample plate. PRX3 mass was measured by MALDI-TOF MS analysis on a Bruker Daltonics MALDI-TOF MS spectrometer. Spectra were analyzed in FLEXAnalysis Software. The intensity of the reduced PRX3 peak (SH) and intensity of the analog adduct peak was determined and corrected for background signal at the adduct peak in the DMSO control. The fraction of single analog adduct in the monomer peak was determined by dividing the intensity of the adduct peak by the summed intensity of the SH and adduct peaks.

[3] = Solubility Assay (HPLC); format: physicochemical; conditions: HEPES/NaCl buffer, aqueous with cosolvent or surfactant or cyclodextrin, kinetic from dmso stock; 20 mM HEPES, 100 mM NaCl, pH 7.5, 18-24 hours at ambient temperature; read-out: Solubility
Experimental: A 20 mM stock solution was made for each compound in DMSO. To measure solubility, 0.03-0.05 mL of the stock was added to 0.27 mL 20 mM HEPES, 100 mM NaCl, pH 7.5. The solution was mixed and rotated 18-24 hours at ambient temperature. The next day, solutions were centrifuged for 10 min at 20,000×g at […] to remove insoluble, solid material. Next, 100 μL of the supernatant containing the soluble compound was added to 900 μL DMSO and High Performance Liquid Chromatography was performed as described in Table 1 and either HIPLC gradient 1 (Table 2) or HIPLC gradient 2 (Table 3). For each analog, a 200 μM standard and a 20 μM standard were prepared and run in parallel (standards were dissolved completely in […]). The amount ofLcompound in the experimental sample was calculated by comparing the area under the curve for compound peak to the area for the closest standard and correcting for dilution.

PRX3 Inhibition (Crosslink + Mono-adduct) [2]	solubility [3]	Compound	EC50 [1]	EC50 ([1]; SK-OV-3, 48 h)
++ (50-90%)	< 100 µM	C=C(NC(=O)c1csc(-c2ccc(CNC(=O)OCC3CCOCC3)cc2)n1)C(=O)NC(=C)C(=O)OC [Compound 45, Methyl 2-(2-(2-(4-(((((tetrahydro-2H-pyran-4-yl)methoxy)carbonyl)amino)methyl)phenyl)thiazole-4-carboxamido)acrylamido)acrylate]	1 to 10 µM	
+++ (>90%)	100 to 1000 µM (≈ 49.2 to 492 µg/mL)	C=C(NC(=O)c1csc(N2CCC(NC(=O)C3CCOCC3)CC2)n1)C(=O)NC(=C)C(=O)OC [Compound 46, Methyl 2-(2-(2-(4-(tetrahydro-2H-pyran-4-carboxamido)piperidin-1-yl)thiazole-4-carboxamido)acrylamido)acrylate]	1 to 10 µM	
++ (50-90%)	< 100 µM	C=C(NC(=O)c1csc(-c2ccc(NC(=O)CCCCCCl)cc2)n1)C(=O)NC(=C)C(=O)OC [Compound 48, Methyl 2-(2-(2-(4-(6-chlorohexanamido)phenyl)thiazole-4-carboxamido)acrylamido)acrylate]	1 to 10 µM	
+++ (>90%)	< 100 µM	C=C(NC(=O)c1csc(N2CCC(CNC(=O)C3CCOCC3)CC2)n1)C(=O)NC(=C)C(=O)OC [Compound 52, methyl 2-(2-(2-(4-((tetrahydro-2H-pyran-4-carboxamido)methyl)piperidin-1-yl)thiazole-4-carboxamido)acrylamido)acrylate]	10 to 25 µM	
++ (50-90%)	< 100 µM	C=C(NC(=O)c1csc(N2CCC[C@H](NC(=O)C3CCOCC3)C2)n1)C(=O)NC(=C)C(=O)OC [Compound 54, methyl (S)-2-(2-(2-(3-(tetrahydro-2H-pyran-4-carboxamido)piperidin-1-yl)thiazole-4-carboxamido)acrylamido)acrylate]	25 to 100 µM	
++ (50-90%)	< 100 µM	C=C(NC(=O)c1csc(N2C[C@@H](C)N(C(=O)OC(C)(C)C)[C@@H](C)C2)n1)C(=O)NC(=C)C(=O)OC [Compound 56, Tert-butyl (cis)-4-(4-((3-((3-methoxy-3-oxoprop-1-en-2-yl)amino)-3-oxoprop-1-en-2-yl)carbamoyl)thiazol-2-yl)-2,6-dimethylpiperazine-1-carboxylate]	1 to 10 µM	
+++ (>90%)	< 100 µM	C=C(NC(=O)c1csc(N2CCN(C(=O)OC(C)(C)C)[C@@H](C)C2)n1)C(=O)NC(=C)C(=O)OC [Compound 57, Tert-butyl (S)-4-(4-((3-((3-methoxy-3-oxoprop-1-en-2-yl)amino)-3-oxoprop-1-en-2-yl)carbamoyl)thiazol-2-yl)-2-methylpiperazine-1-carboxylate]	1 to 10 µM	

More lines, now with the values behind:

Compound	PRX3 Inhibition (Crosslink + Mono-adduct) [2]	solubility [3]	EC50 [1]	EC50 ([1]; SK-OV-3, 48 h)
C=C(NC(=O)c1csc(N2CCN(C(=O)COCCOC)CC2)n1)C(=O)NC(=C)C(=O)OC [Compound 47, Methyl 2-(2-(2-(4-(2-(2-methoxyethoxy)acetyl)piperazin-1-yl)thiazole-4-carboxamido)acrylamido)acrylate]	++ (50-90%)	> 1000 µM		25 to 100 µM
C=C(NC(=O)c1csc(-c2ccc(CNC(=O)OCCOCCNC(=O)OC(C)(C)C)cc2)n1)C(=O)NC(=C)C(=O)OC [Compound 49, Methyl 2-(2-(2-(4-(13,13-dimethyl-3,11-dioxo-4,7,12-trioxa-2,10-diazatetradecyl)phenyl)thiazole-4-carboxamido)acrylamido)acrylate]	+++ (>90%)	< 100 µM		1 to 10 µM
C=C(NC(=O)c1csc(-c2ccc(CNC(=O)OCCCCCCN=[N+]=[N-])cc2)n1)C(=O)NC(=C)C(=O)OC [Compound 50, Methyl 2-(2-(2-(4-(((((6-azidohexyl)oxy)carbonyl)amino)methyl)phenyl)thiazole-4-carboxamido)acrylamido)acrylate]	+ (5-50%)	< 100 µM	1 to 10 µM	
C=C(NC(=O)c1csc(N2CCC(C(=O)NC3CCOCC3)CC2)n1)C(=O)NC(=C)C(=O)OC [Compound 53, Methyl 2-(2-(2-(4-((tetrahydro-2H-pyran-4-yl)carbamoyl)piperidin-1-yl)thiazole-4-carboxamido)acrylamido)acrylate]	+++ (>90%)	< 100 µM	10 to 25 µM	
C=C(NC(=O)c1csc(N2CCC(NC(=O)COC)CC2)n1)C(=O)NC(=C)C(=O)OC [Compound 55, Methyl 2-(2-(2-(4-(2-methoxyacetamido)piperidin-1-yl)thiazole-4-carboxamido)acrylamido)acrylate]	++ (50-90%)	< 100 µM		10 to 25 µM
